In brackets after ≈: the same amount, converted by molar mass.
Columns and labels:
[1] = tested on: P. asymbiotica subsp. australis cells; test: Cell aggregation (cross-linking) assay; assay type: cell-based, Photorhabdus asymbiotica subsp. australis; settings: three independent measurements
Description: Because of the aggregation of PHL by calixarenes and dendrimers during SPR and ITC experiments, we decided to compare tetravalent compounds at a higher level. We performed a series of in vitro aggregation assays to reveal their aggregation properties towards P. asymbiotica subsp. australis (Table 4, Fig. 5). Prior to each assay, we confirmed the absence of aggregates in two negative controls – bacterial cells in PBS buffer and in the presence of azide 1 as a monomer. With all chosen compounds, we observed bacterial aggregates of a variable size that confirmed that they are capable of interacting with a cell surface. This effect may be caused by interaction of the multivalent inhibitors with PHL or other receptors. The concentration of the first appearance of aggregates varied according to the nature of the ligand used. […] An unexpected observation was that calixarene 7 had the lowest aggregation potential. In contrast to other techniques (hemagglutination, SPR and ITC), where calixarenes 6 and 7 provided similar results, during cross-linking experiments calixarene 7 was four times worse than calixarene 6. At the same time, both tetrameric calixarenes 6 and 7 are in a 1,3-alternate conformation with the two-faced presentation of the fucopyranosyl epitopes on opposite regions probably occupying a similar spatial orientation. The only difference is the tert-Bu group on the upper rim in calixarene 6, which might contribute to nonpolar interactions with whole P. asymbiotica cells.
P. asymbiotica subsp. australis was inoculated from stock cells stored at −80 °C into a standard LB media and were grown in 30 °C under an orbital shaking overnight. Bacterial growth was tracked by measuring the optical density of the broth at 600 nm (OD600) using a spectrophotometer (Biochrom Ltd., BioPhotometer WGA CO 8000 Biowave). Cells were harvested when reaching an OD600 = 0.5. The culture was centrifuged at 4,300 g and room temperature for 2 minutes (Minispin, Eppendorf, Germany) and cells were then washed three times with PBS buffer. Cells were diluted in PBS to OD600 of 2.0 and kept in a fridge until performing the aggregation assay.
P. asymbiotica subsp. australis cells and fucosylated compounds in a concentration ranging from 50 mM to 3.125 mM were gently mixed in a 9:1 (v/v) ratio. The reaction mixtures were left at room temperature for 10 minutes. 5 µl of reaction mixture was then transferred onto a microscope slide and observed under a fluorescence microscope (OLYMPUS IX81 Microscope IX81F-3 with IX2-UCB-2 Controller and X-Cite 120PC Q; Olympus and Excelitas Technologies, Japan, resp. USA). As a negative control, bacterial cells with/without azide 1 as a monomer were used. Three independent measurements were performed.

PHL [2] = molecular target: T1, PHL (Photorhabdus asymbiotica, UniProt C7BLE4); test: Isothermal titration calorimetry of PHL with ligands; assay type: binding; settings: for Kd / −TΔS / −ΔG / −ΔH / n (stoichiometry): ITC at 25 °C; for n (stoichiometry): two independent measurements; for Potency L-Fuc: KD L-fucose / KD ligand; for β L-Fuc (affinity improvement factor): KD,basic unit/(valency × KD,ligand), basic unit L-Fuc; for β Azide1 (affinity improvement factor): basic unit azide 1
Description: The binding of PHL to different α-L-fucoside compounds was further characterized by isothermal titration calorimetry (ITC), enabling determination of the complete thermodynamic profile of the molecular interactions (Table 3, Fig. 4). […] Because of this, it was not possible to evaluate the data, despite the obvious interaction. The dendrimers also cross-linked/aggregated the protein as with calixarenes, however the curves provided clear outcomes with an affinity in the low micromolar range. The dissociation constants (KD) of all dendrimers correlate with their valency – the higher number of fucose, the more decreased KD. […] The stoichiometry value n corresponds to the number of terminal fucoses per ligand molecule. The n value decreases from 4 to 1 as the number of fucose units increases from 1 to 12 (Table 3).
PHL protein in buffer A was equilibrated at room temperature at least for 30 min before ITC measurement. All ITC experiments were performed using ITC200 calorimeter (Malvern Panalytical, UK) at 25 °C. Carbohydrate ligands dissolved in buffer A were used at different concentrations. Protein in the calorimeter cell (50 μM) was titrated by consecutive additions (2 μl) of the ligand (1.5–5 mM) in the syringe while stirring at 1000 rpm. Integrated heat effects were analysed by nonlinear regression using a single-site binding model and global fitting in Origin 7 software (Microcal Instruments)[37]. The thermodynamic parameters of synthesised inhibitors were determined from two independent measurements.

PHL [3] = molecular target: T1, PHL; test: Hemagglutination inhibition assay with PHL (papain-treated human RBCs O); assay type: cell-based; settings: for MIC (minimal inhibitory concentration, hemagglutination by PHL): RBC O, two independent measurements; for PotencyL-Fuc: MIC L-fucose / MIC ligand; for β L-Fuc (affinity improvement factor): MICbasic unit/(valency × MICligand), basic unit L-Fuc; for β Azide1 (affinity improvement factor): basic unit azide 1
Description: The set of potential ligands 1–10 with different levels of fucosylation was tested, and their inhibition potency on hemagglutination by PHL was assessed (Table 1, Fig. 2). […] To assess the contribution of valency to the affinity increase, an affinity improvement factor β was calculated as the relationship MICbasic unit/(valency × MICligand).
Human red blood cells (RBCs) O were processed according to previously published work[16]. In brief, RBCs O treated with sodium citrate were washed four times by PBS buffer (137 mM NaCl, 2.7 mM KCl, 8 mM Na2HPO4, 1.47 mM KH2PO4, pH 7.4), diluted to 50% by PBS with 0.005% (w/w) sodium azide and treated by 0.1% papain for the duration of 30 minutes.
Hemagglutination inhibition assay was performed for specificity and semi-quantitative affinity of the PHL interaction with the compounds. All carbohydrate inhibitors in 50 mM starting concentration were serially diluted in the PBS buffer and used for a determination of the lowest inhibiting concentration. As a blank, the PBS buffer supplemented with the appropriate amount of DMSO was used in order to exclude potential interference with the interaction. The individual samples were mixed with the lectin in concentration 2 mg/ml in a 5 μl:5 μl ratio. Thereafter, 10 μl of 10% RBCs O in PBS buffer was added, thoroughly mixed and incubated for 10 minutes at room temperature. Following incubation, the mixture was again mixed and the reaction was observed on microscope slides using Levenhuk 2L NG microscope with Levenhuk D2L digital camera (Levenhuk, USA). Imagines were obtained via software ToupView for Windows (Levenhuk). The positive (PHL without inhibitor) and negative control (reaction without PHL) were prepared and processed in the same way using the appropriate volume of PBS buffer instead of the not included components. The lowest concentration of inhibitor able to inhibit agglutination was determined and compared with the standard (L-fucose). Minimal inhibitory concentrations (MIC) of synthesised inhibitors were determined from two independent measurements.

T1 sequence (C7BLE4 entry or part of it): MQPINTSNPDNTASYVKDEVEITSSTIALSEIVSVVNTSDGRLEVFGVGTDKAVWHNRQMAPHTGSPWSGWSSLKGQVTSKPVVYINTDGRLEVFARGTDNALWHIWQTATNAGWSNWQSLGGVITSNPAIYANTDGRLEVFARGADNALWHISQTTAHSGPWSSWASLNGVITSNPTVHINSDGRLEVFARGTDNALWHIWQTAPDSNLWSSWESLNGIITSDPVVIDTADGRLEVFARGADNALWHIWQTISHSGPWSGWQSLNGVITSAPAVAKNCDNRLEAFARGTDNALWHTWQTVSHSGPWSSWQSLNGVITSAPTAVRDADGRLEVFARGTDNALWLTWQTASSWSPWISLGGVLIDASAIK

Row | Structure (SMILES) | The lowest concentration able to aggregate P. asymbiotica cells [1] | Kd (PHL [2]) [µM] | −TΔS (PHL [2]) [kcal/mol] | −ΔG (PHL [2]) [kcal/mol] | −ΔH (PHL [2]) [kcal/mol] | n (stoichiometry) (PHL [2]) | Potency L-Fuc (PHL [2]; ITC) | β L-Fuc (affinity improvement factor) (PHL [2]; ITC) | β Azide1 (affinity improvement factor) (PHL [2]; ITC) | MIC (minimal inhibitory concentration, hemagglutination by PHL) (PHL [3]) [µM] | PotencyL-Fuc (PHL [3]; hemagglutination) | PotencyL-Fuc (PHL [3]; hemagglutination, listed as azide 1) | β L-Fuc (affinity improvement factor) (PHL [3]; hemagglutination) | β Azide1 (affinity improvement factor) (PHL [3]; hemagglutination) | PotencyAzide1 (PHL [2]; ITC, relative to azide 1) | PotencyAzide1 (PHL [3]; hemagglutination, relative to azide 1)
1 | C[C@@H]1O[C@@H](CCN=[N+]=[N-])[C@@H](O)[C@H](O)[C@@H]1O [Azide 1] | No visible aggregation in used concentrations | 105 ± 9 | 4.83 ± 1.05 | 5.43 ± 0.478 | 10.3 ± 0.932 | 4.1 ± 0.3 | 13 | 13 | 1 | 200 (≈ 43.4 µg/mL) | 15.6 | 16 | 15.6 | 1 | – | –
2 | C[C@@H]1O[C@@H](CCn2cc(COCC(COCc3cn(CC[C@@H]4O[C@@H](C)[C@@H](O)[C@@H](O)[C@@H]4O)nn3)(COCc3cn(CC[C@@H]4O[C@@H](C)[C@@H](O)[C@@H](O)[C@@H]4O)nn3)COCc3cn(CC[C@@H]4O[C@@H](C)[C@@H](O)[C@@H](O)[C@@H]4O)nn3)nn2)[C@@H](O)[C@H](O)[C@@H]1O [Dendrimer 8] | 0.625 mM | 36.9 ± 3.7 | 6.84 ± 0.765 | 6.05 ± 0.598 | 12.9 ± 0.454 | 3.0 ± 0.1 | 38 | 9 | 1 | 50 (≈ 57.9 µg/mL) | 62.5 | – | 15.6 | 1 | 3 | 4

— article PMC6797808, “Fucosylated inhibitors of recently identified bangle lectin from Photorhabdus asymbiotica” (Scientific Reports, 2019)
